Test results as given in publication PMC11258682, “Mechanoresponsive Protein Crystals for NADH Recycling in Multicycle Enzyme Reactions” (Journal of the American Chemical Society, 2024).

Biological target: Cry3Aa (Bacillus thuringiensis, UniProt P0A379)
Conditions: solid crystals, non-specific electrostatic adsorption likely; no PEI

Chain of Cry3Aa (P0A379 58-644 limits assumed): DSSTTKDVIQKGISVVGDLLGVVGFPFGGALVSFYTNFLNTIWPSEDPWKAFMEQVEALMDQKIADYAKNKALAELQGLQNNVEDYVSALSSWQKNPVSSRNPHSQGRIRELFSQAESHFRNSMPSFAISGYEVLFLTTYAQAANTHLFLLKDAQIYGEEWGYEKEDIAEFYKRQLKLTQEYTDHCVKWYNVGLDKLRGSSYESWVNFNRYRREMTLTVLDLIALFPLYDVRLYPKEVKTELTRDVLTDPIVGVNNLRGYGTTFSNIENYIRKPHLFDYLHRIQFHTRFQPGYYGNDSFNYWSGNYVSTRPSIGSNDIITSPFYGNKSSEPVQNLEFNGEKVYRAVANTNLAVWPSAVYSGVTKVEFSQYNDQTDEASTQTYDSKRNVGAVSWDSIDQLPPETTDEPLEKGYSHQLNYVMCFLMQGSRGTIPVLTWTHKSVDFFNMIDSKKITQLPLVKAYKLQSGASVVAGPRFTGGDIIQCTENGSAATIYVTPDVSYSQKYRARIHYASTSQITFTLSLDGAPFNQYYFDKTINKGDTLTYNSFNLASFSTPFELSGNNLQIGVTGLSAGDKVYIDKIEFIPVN

SMILES: NC(=O)C1=CN([C@@H]2O[C@H](COP(=O)(O)OP(=O)(O)OC[C@H]3O[C@@H](n4cnc5c(N)ncnc54)[C@H](O)[C@@H]3O)[C@@H](O)[C@H]2O)C=CC1 [NADH]
- amount of NADH bound: 6 ± 2 µmol/g
